Structures can show the parent of a compound that is named as a salt.
Tests used:
[1] = target: T1, human dopamine D1 receptor (Homo sapiens, UniProt P21728); experiment: [3H]-SCH-23390 binding to cloned human dopamine D1 receptors (CHO cell membranes); conditions: competitive binding, [3H]-SCH-23390, cloned human D1 in CHO membranes; read-out: D1 affinity Ki
T1 construct: A 1.4 Kb Hind III to Xho I fragment was subcloned into the vector pMMLV; expressed in transfected cells; host or cells: CHO cells, clone CHO-D1M#9 (plasmid pHD1MMLV), membranes

D1 receptor = target: T2, D1 receptor (Homo sapiens, UniProt P21728); experiment: D1 Activation Adenylyl Cyclase Assay (cAMP FlashPlate, D1 transfected CHO cell line); assay type: cell-based; conditions: agonist activity at the D1 receptor, adenylate cyclase assay, D1 transfected CHO cell line; read-out: D1 EC50
T2 construct: expressed in transfected cells; host or cells: D1 transfected CHO cell line
In short: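 D1-transfected CHO cells (50,000/well) were exposed to compound 1/10 serial dilutions for 8 min at RT; cAMP measured by competitive 125I-cAMP FlashPlate against a standard curve. Response normalised between basal and saturating D1 agonist; EC50 at half-maximal stimulation, plateau reported as % maximal dopamine stimulation.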

[2] = target: human dopamine D2Long (D2L) receptors (Homo sapiens, UniProt P14416)
human dopamine D2Long (D2L) receptors, sequence (P14416 whole entry): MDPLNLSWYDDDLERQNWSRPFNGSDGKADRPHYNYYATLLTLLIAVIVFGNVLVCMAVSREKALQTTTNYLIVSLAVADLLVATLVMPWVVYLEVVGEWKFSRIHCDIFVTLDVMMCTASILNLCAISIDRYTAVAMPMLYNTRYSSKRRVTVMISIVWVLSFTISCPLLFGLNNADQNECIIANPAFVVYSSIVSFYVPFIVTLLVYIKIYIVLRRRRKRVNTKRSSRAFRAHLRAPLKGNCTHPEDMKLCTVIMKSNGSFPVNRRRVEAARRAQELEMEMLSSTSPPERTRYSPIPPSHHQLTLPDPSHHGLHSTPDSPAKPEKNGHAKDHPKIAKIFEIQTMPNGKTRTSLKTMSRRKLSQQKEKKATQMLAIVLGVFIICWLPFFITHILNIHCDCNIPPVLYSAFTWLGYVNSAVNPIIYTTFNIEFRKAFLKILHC

T2 sequence (P21728 whole entry): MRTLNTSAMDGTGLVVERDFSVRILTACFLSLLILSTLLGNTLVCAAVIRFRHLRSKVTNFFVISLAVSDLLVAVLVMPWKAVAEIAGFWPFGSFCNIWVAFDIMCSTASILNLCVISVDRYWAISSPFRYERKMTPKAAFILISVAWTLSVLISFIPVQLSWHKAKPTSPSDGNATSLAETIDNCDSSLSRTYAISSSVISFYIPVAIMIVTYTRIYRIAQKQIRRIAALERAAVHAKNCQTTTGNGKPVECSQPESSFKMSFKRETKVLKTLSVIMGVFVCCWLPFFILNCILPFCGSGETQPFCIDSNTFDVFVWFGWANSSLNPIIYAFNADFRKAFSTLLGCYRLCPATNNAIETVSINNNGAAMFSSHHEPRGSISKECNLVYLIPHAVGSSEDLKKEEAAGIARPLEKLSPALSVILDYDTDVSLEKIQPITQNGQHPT
T1 sequence (P21728 whole entry, the tested form may be a part): as the sequence (P21728 whole entry) above

| SMILES | Ki [1] [nM] | EC50 (D1 receptor) [nM] | Ki [2] [nM] |
| --- | --- | --- | --- |
| Cc1ccc2c(c1O)C[C@@H](C1CCN(S(=O)(=O)CCc3cccc4ccccc34)CC1)O[C@H]2CN [Example 159, (1R,3S)-1-Aminomethyl-6-methyl-3-[1-(2-naphthalen-1-yl-ethanesulfonyl)-piperidin-4-yl]-isochroman-5-ol hydrochloride] | 64.5 | 35 | ≥ 100000 |
| CCNC[C@@H]1O[C@H](C2CCN(CC(=O)c3ccccc3)CC2)Cc2c1ccc(C)c2O [Example 179, 2-[4-((1R,3S)-1-Ethylaminomethyl-5-hydroxy-6-methyl-isochroman-3-yl)-piperidin-1-yl]-1-phenyl-ethanone] | 139 | 810 | 215 |
| Cc1ccc2c(c1O)C[C@@H](C1CCN(CCNC(=O)c3ccc(F)cc3)CC1)O[C@H]2CN [Example 189, N-{2-[4-((1R,3S)-1-Aminomethyl-5-hydroxy-6-methylisochroman-3-yl)-piperidin-1-yl]ethyl}-4-fluorobenzamide dihydrobromide] | 312 | 270 | 61 |
| Cc1ccc2c(c1O)C[C@@H](C1CCN(CCNC(=O)c3ccccc3)CC1)O[C@H]2CN [Example 191, N-{2-[4-((1R,3S)-1-Aminomethyl-5-hydroxy-6-methylisochroman-3-yl)-piperidin-1-yl]-ethyl}benzamide dihydrobromide] | 276 | 180 | 415 |
| Cc1ccc2c(c1O)C[C@@H](C1CCN(CCNC(=O)Nc3ccc(F)cc3)CC1)O[C@H]2CN [Example 192, (1R,3S)-1-{2-[4-(1-Aminomethyl-5-hydroxy-6-methyl-isochroman-3-yl)-piperidin-1-yl]ethyl}-3-(4-fluoro-phenyl)urea dihydrobromide] | 77 | 11 | 477 |
| Cc1ccc2c(c1O)C[C@@H](C1CCN(CCNC(=O)Nc3ccccc3)CC1)O[C@H]2CN [Example 193, 1-{2-[4-((1R,3S)-1-Aminomethyl-5-hydroxy-6-methyl-isochroman-3-yl)piperidin-1-yl]-ethyl}-3-phenylurea dihydrobromide] | 50 | 43 | 284 |
| CCC(CN1CCC([C@@H]2Cc3c(ccc(C)c3O)[C@H](CNC)O2)CC1)c1ccccc1 (stereo partly drawn) [Example 194, (1R,3S)-6-Methyl-1-methylaminomethyl-3-[1-(2-phenylbutyl)-piperidin-4-yl]isochroman-5-ol dihydrochloride] | 54 | 34 | 639 |

Results, then the compound that gave them:

| Ki [1] [nM] | EC50 (D1 receptor) [nM] | Ki [2] [nM] | SMILES |
| --- | --- | --- | --- |
| 82 | 58 | ≥ 100000 | Cc1ccc2c(c1O)C[C@@H](C1CCN(S(=O)(=O)c3cc(Cl)ccc3Cl)CC1)O[C@H]2CN [Example 151, (1R,3S)-1-Aminomethyl-3-[1-(2,5-dichloro-benzenesulfonyl)-piperidin-4-yl]-6-methyl-isochroman-5-ol hydrochloride] |
| 2.07 | 460 | 434 | Cc1ccc2c(c1O)C[C@@H](C1CCN(S(=O)(=O)CC(F)(F)F)CC1)O[C@H]2CN [Example 157, (1R,3S)-1-Aminomethyl-6-methyl-3-[1-(2,2,2-trifluoro-ethanesulfonyl)-piperidin-4-yl]-isochroman-5-ol hydrochloride] |
| 95.2 | 11 | ≥ 100000 | Cc1ccc2c(c1O)C[C@@H](C1CCN(S(=O)(=O)Cc3ccccc3[N+](=O)[O-])CC1)O[C@H]2CN [Example 158, (1R,3S)-1-Aminomethyl-6-methyl-3-[1-(2-nitro-phenylmethanesulfonyl)-piperidin-4-yl]-isochroman-5-ol hydrochloride] |
| 74 | 77 | 528 | Cc1ccc2c(c1O)C[C@@H](C1CCN(S(=O)(=O)N3CCc4ccccc4C3)CC1)O[C@H]2CN [Example 167, (1R,3S)-1-Aminomethyl-3-[1-(3,4-dihydro-1H-isoquinoline-2-sulfonyl)-piperidin-yl]-6-methyl-isochroman-5-ol hydrochloride] |
